# Patent publication US20200263231A1, “Fluorogenic dyes for high sensitivity DNA detection” (LIFE TECHNOLOGIES CORPORATION, priority 2016, published 2020)
# Columns and labels:
# calf thymus DNA = experiment: Fluorescence emission and enhancement of compounds bound to calf thymus DNA; assay type: binding; conditions: 0.8 μM compound with 500 ng/ml calf thymus DNA in TE buffer; for Emission Max: excited at 488 nm; for Fluorescence Enhancement: emission area 500-715 nm compared to compound 1, defined as 1000-fold
# Experimental: Compounds 1-65 were prepared and their fluorescence absorption and emission characteristics were measured. Intrinsic fluorescence of the compounds only (without DNA) was negligible. Emission spectra for the compounds bound to dsDNA were obtained by incubating 0.8 μM compound with 500 ng/ml calf thymus DNA in TE buffer (10 mM Tris-HCl, pH 7.5, 1 mM EDTA) in a final volume of 3 ml. Measurements were made using PerkinElmer LS 55 (F-11) Fluorescence spectrometer. Samples were excited at 488 nm and fluorescence emission was measured with emission slit widths of 2.5 nm. Absorption maxima were determined according to standard techniques.
# Fluorescence enhancement measurements of the compounds were obtained by incubating 0.8 μM compound with 500 ng/ml calf thymus DNA with compounds at a final concentration of 0.8 μM in TE buffer. Compound 1 was used as an internal standard to control for variability (e.g., in excitation light intensity). The area-under-curve of fluorescence emission spectra from 500 nm to 715 nm was calculated, and compared to that of compound 1, which was defined as having 1000-fold fluorescence enhancement relative to fluorescence of the compound alone.
# [1] = UV/VIS absorption spectra; assay type: physicochemical; conditions: 10 μM compound in 50 mM potassium phosphate buffer (pH 7.0)
# Experimental: The UV/VIS absorption spectra were obtained with 10 μM compound solution in 50 mM potassium phosphate buffer (pH 7.0) in a final volume of 3 mL. Measurements were carried out using a Lambda 245 spectrophotometer from Perkin Elmer.
# dsDNA = experiment: Microplate fluorescence when bound to dsDNA; assay type: binding; conditions: 500 ng/mL dsDNA
# Experimental: Compounds were tested in triplicate for fluorescence enhancement when bound to dsDNA. 190 μL of 1 μM compound in 1× Tris-EDTA, pH 7.5, 0.01% CHAPS was added to 10 μL of 4 different concentrations of dsDNA (0, 25 ng/mL, 200 ng/mL, and 500 ng/mL) in wells of 96 well Costar black, clear bottom microplates. Plates were read on a SpectraFluor multifunction microplate reader (Tecan) at 491 nm excitation and 520 nm emission.
# Compounds were tested for fluorescence enhancement when bound to dsDNA as described in Example 3. Fluorescence data with dsDNA are shown in FIG. 5 for the different tested compounds.
# ssDNA = experiment: Microplate fluorescence when bound to ssDNA; assay type: binding; conditions: for Ratio to R1, fluorescent emission with ssDNA / fluorescent emission with ssDNA: 500 ng/mL ssDNA; for ssDNA emission: text says 10 ng/μL
# Experimental: The compounds from FIG. 1 were also characterized with respect to their fluorescence enhancement when bound to ssDNA. The compounds from FIG. 1, R1 and R2 were tested in triplicate. 190 μL of 1 μM compound in 1× Tris-EDTA pH7.5, 0.01% CHAPS was added to 10 μL of 4 different concentrations of ssDNA in wells of 96 well Costar black, clear bottom microplates. Plates were read on a SpectraFluor multifunction microplate reader (Tecan) at 491 nm excitation and 520 nm emission. Fluorescence data with ssDNA are shown in FIG. 3 for the different tested compounds.
# Next, the compounds were compared for their fluorescence enhancement when bound to ssDNA as described in Example 1. Fluorescence data with ssDNA are shown in FIG. 6 for the different tested compounds.
# dsDNA versus ssDNA = experiment: In vitro selectivity dsDNA versus ssDNA; assay type: binding
# Experimental: Six compounds (2, 34, 35, 41, 42, and 48) were characterized in in vitro selectivity experiments for double-stranded DNA (dsDNA) versus single-stranded DNA (ssDNA). These compounds were compared against comparative compounds R^1 and R^2.
# For each individual compound, the dsDNA and ssDNA fluorescence emission at 10 ng/μL was compared to evaluate in vitro selectivity for dsDNA/ssDNA, as shown in FIG. 4.
# Further in vitro selectivity experiments for double-stranded DNA (dsDNA) versus single-stranded DNA (ssDNA) were performed using the methods outlined in Example 3 to compare compounds 2, 34, 41, 42, and 48 to comparative compounds R1 and R2.
# For each individual compound, the dsDNA and ssDNA fluorescence emission at 10 ng/μL was calculated to estimate in vitro selectivity, as shown in FIG. 7.
# [2] = Example 3, Table 2, 1 μM compound, 491 nm excitation, 520 nm emission
# [3] = Example 3, Table 3, 1 μM compound, 491 nm excitation, 520 nm emission
# [4] = Example 3, Table 4, FIG. 4 says 500 ng/mL
# [5] = Example 4, Table 7, FIG. 7 says 500 ng/mL
Compound,Emission Max (calf thymus DNA),Absorbance Max [1],Fluorescence Enhancement (calf thymus DNA),"Ratio to R1, fluorescent emission with dsDNA (dsDNA; Example 3, Table 2)",fluorescent emission with dsDNA (dsDNA; [2]),"Ratio to R1, fluorescent emission with dsDNA (dsDNA; Example 4, Table 5)","fluorescent emission with dsDNA (dsDNA; Example 4, Table 5)","Ratio to R1, fluorescent emission with ssDNA (ssDNA; Example 3, Table 3)",fluorescent emission with ssDNA (ssDNA; [3]),ssDNA emission (ssDNA; [4]),"fluorescent emission with ssDNA (ssDNA; Example 4, Table 6)",ssDNA emission (ssDNA; [5]),"ratio of dsDNA emission versus ssDNA emission (dsDNA versus ssDNA; Example 3, Table 4)","ratio of dsDNA emission versus ssDNA emission (dsDNA versus ssDNA; Example 4, Table 7)"
CCCN(CCC[N+](C)(C)C)C1=CC(=Cc2sc3ccccc3[n+]2C)c2ccccc2N1c1ccccc1.[Cl-].[I-] [Compound 2],523 nm,501 nm,964 fold,1.74,9494,1.8,10339,1.6,1773,1773,1767,1767,5.4,5.9
CCN(CCCN(C)C)C1=CC(=Cc2sc3ccccc3[n+]2C)c2ccc(OC)cc2N1c1ccccc1.[I-] [Compound 48],520 nm,489 nm,1016 fold,1.72,9350,1.9,11400,2.5,2739,2739,2477,2477,3.4,4.6
CCCCN(CCC[N+](C)(C)C)C1=CC(=Cc2sc3ccccc3[n+]2C)c2ccc(OC)cc2N1c1ccccc1.[I-].[I-] [Compound 35],518 nm,489 nm,1069 fold,2.05,11136,–,–,2.3,2515,2515,–,–,4.4,–

# Further lines, with some results ahead:
Emission Max (calf thymus DNA),Absorbance Max [1],Compound,Fluorescence Enhancement (calf thymus DNA),"Ratio to R1, fluorescent emission with dsDNA (dsDNA; Example 3, Table 2)",fluorescent emission with dsDNA (dsDNA; [2]),"Ratio to R1, fluorescent emission with dsDNA (dsDNA; Example 4, Table 5)","fluorescent emission with dsDNA (dsDNA; Example 4, Table 5)","Ratio to R1, fluorescent emission with ssDNA (ssDNA; Example 3, Table 3)",fluorescent emission with ssDNA (ssDNA; [3]),ssDNA emission (ssDNA; [4]),"fluorescent emission with ssDNA (ssDNA; Example 4, Table 6)",ssDNA emission (ssDNA; [5]),"ratio of dsDNA emission versus ssDNA emission (dsDNA versus ssDNA; Example 3, Table 4)","ratio of dsDNA emission versus ssDNA emission (dsDNA versus ssDNA; Example 4, Table 7)"
519 nm,494 nm,CCCN(CCC[N+](C)(C)C)C1=CC(=Cc2sc3ccccc3[n+]2C)c2ccc(OC)cc2N1c1ccccc1.[I-].[I-] [Compound 42],1070 fold,2.00,10860,2.3,13580,2.8,3017,3017,3078,3078,3.6,4.4
517 nm,488 nm,CCCCN(CCCN(C)C)C1=CC(=Cc2sc3ccccc3[n+]2C)c2ccc(OC)cc2N1c1ccccc1.[I-] [Compound 34],1071 fold,1.92,10452,2.1,12434,2.4,2578,2578,2603,2603,4.1,4.8
517 nm,493 nm,CCCN(CCCN(C)C)C1=CC(=Cc2sc3ccccc3[n+]2C)c2ccc(OC)cc2N1c1ccccc1.[I-] [Compound 41],1020 fold,1.83,9936,1.9,11424,2.7,2878,2878,2814,2814,3.5,4.1
